Laboratory results published in patent US11332455B2, “α,β-unsaturated amide compound” (KYOWA KIRIN CO., LTD., priority 2015, dated 2022).

Tests used:
Experiment in all cases: Cell growth inhibitory effect, cell counting kit 8, 6 days
Type in all cases: cell-based
[1] = tested on: HuH28, a human liver cancer cell line; details: 144 h, HuH28 cells, 6 days incubation
In short: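 HuH28 human liver cancer cells (JCRB0426) were maintained below 80% density in RPMI1640 with 10% FBS and grown in 96-well flat-bottom plates. Test compound was serially diluted to 5 times final concentration and added with DMSO at 0.1%, then incubated for 6 days at 37° C in 5% CO2. Viable cells were counted with cell counting kit 8 at dosing and on day 6, using a 2 or 3 hour color reaction and absorbance at 450 nm. GI50 was derived from growth inhibition rates.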

[2] = tested on: NCI-H322 cells, a human lung cancer cell line; details: 144 h, 6 days incubation
In short: (§1)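 Cells grown in RPMI1640 with 10% FBS, plated at 500 cells/well (NCI-H226, NCI-H322) and incubated one day before serially diluted compound was added (0.1% DMSO final). After 6 days at 37 °C, 5% CO2, CCK-8 colour developed 2–3 h and A450 read; GI50 derived from growth inhibition rate.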

[3] = tested on: NCI-H226 cells, a human mesothelioma cell line; details: 144 h, 6 days incubation
In short: as §1

[4] = group 100 nmol/L to 1 μmol/L (upper bound given in μmol/L)

GI50 [1] [nM] | GI50 [2] [nM] | GI50 ([3]; group less than 100 nmol/L) [nM] | GI50 [3, 4] [nM] | Compound
< 3000 | < 1000 | < 100 |  | C=CC(=O)NCc1cc(Oc2ccc(C(F)(F)F)nc2)nc2ccccc12 [Compound 149, N-{(2-[{6-(Trifluoromethyl)pyridin-3-yl}oxy]quinolin-4-yl)methyl}acrylamide]
< 3000 | < 1000 | < 100 |  | C=CC(=O)NCc1cc(Oc2ccnc(Cl)c2)nc2ccccc12 [Compound 150, N-([2-{(2-Chloropyridin-4-yl)oxy}quinolin-4-yl]methyl)acrylamide]
< 3000 | < 1000 | < 100 |  | C=CC(=O)NCc1cc(Oc2ccnc(C(F)(F)F)c2)nc2ccccc12 [Compound 151, N-{(2-[{2-(Trifluoromethyl)pyridin-4-yl}oxy]quinolin-4-yl)methyl}acrylamide]
< 3000 | < 1000 |  | 100 to 1000 | C=CC(=O)NC1CCOc2c1ccc(Oc1ccc(F)c(F)c1)c2OC (stereo not drawn) [Compound 164, N-{7-(3,4-Difluorophenoxy)-8-methoxychroman-4-yl}acrylamide]
< 3000 | < 1000 | < 100 |  | C=CC(=O)NC1CCOc2c1ccc(Oc1ccc(C(F)(F)F)nc1)c2Cl (stereo not drawn) [Compound 168, N-(8-Chloro-7-[{6-(trifluoromethyl)pyridin-3-yl}oxy]chroman-4-yl)acrylamide]
< 3000 | < 1000 | < 100 |  | C=CC(=O)NC1CCOc2c1ccc(Oc1ccc(C(F)(F)F)nc1)c2Br (stereo not drawn) [Compound 169, N-(8-Bromo-7-[{6-(trifluoromethyl)pyridin-3-yl}oxy]chroman-4-yl)acrylamide]
< 3000 | < 1000 | < 100 |  | C=CC(=O)NCc1ccc(Oc2ccc(Cl)cc2)c2c1CCCO2 [Compound 176, N-[{8-(4-Chlorophenoxy)chroman-5-yl}methyl]acrylamide]
< 3000 | < 1000 |  | 100 to 1000 | Nc1cncc(OCC2CCC(F)(F)CC2)c1 [Compound 192, 5-[(4,4-Difluorocyclohexyl)methoxy]pyridin-3-amine]
< 3000 | < 1000 | < 100 |  | C=CC(=O)NCc1ccc(Oc2ccc(C(F)(F)F)cc2)c2ncc(C)cc12 [Compound 199, N-([3-Methyl-8-{4-(trifluoromethyl)phenoxy}quinolin-5-yl]methyl)acrylamide]
< 3000 | < 1000 | < 100 |  | C=CC(=O)NCc1ccc(Oc2ccc(C(F)(F)F)nc2)c2ncc(C)cc12 [Compound 200, N-{(3-Methyl-8-[{6-(trifluoromethyl)pyridin-3-yl}oxy]quinolin-5-yl)methyl}acrylamide]
< 3000 | < 1000 | < 100 |  | C=CC(=O)NCc1ccc(Oc2ccc(C(F)(F)F)cc2)c2nccc(C)c12 [Compound 201, N-([4-Methyl-8-{4-(trifluoromethyl)phenoxy}quinolin-5-yl]methyl)acrylamide]
< 3000 | < 1000 | < 100 |  | C=CC(=O)NCc1ccc(Sc2ccc(C(F)(F)F)cc2)c2ncccc12 [Compound 202, N-{(8-[{4-(Trifluoromethyl)phenyl}thio]quinolin-5-yl)methyl}acrylamide]
< 3000 | < 1000 | < 100 |  | C=CC(=O)NCc1ccc(Nc2ccc(C(F)(F)F)cc2)c2ncccc12 [Compound 203, N-{(8-[{4-(Trifluoromethyl)phenyl}amino]quinolin-5-yl)methyl}acrylamide]
< 3000 | < 1000 |  | 100 to 1000 | C=CC(=O)NCc1ccc(C(O)c2ccc(C(F)(F)F)cc2)c2ncccc12 (stereo not drawn) [Compound 206, N-{(8-[Hydroxy{4-(trifluoromethyl)phenyl}methyl]quinolin-5-yl)methyl}acrylamide]

Compound | GI50 [1] [nM] | GI50 [2] [nM] | GI50 ([3]; group less than 100 nmol/L) [nM] | GI50 [3, 4] [nM]
C=CC(=O)NC1COc2c(cccc2Oc2cnc(C(F)(F)F)nc2)C1 (stereo not drawn) [Compound 155, N-(8-[{2-(Trifluoromethyl)pyrimidin-5-yl}oxy]chroman-3-yl)acrylamide] | < 3000 | < 1000 | < 100 | 
